This is an account of results in US20130296311A1, “INHIBITORS OF HCV NS5A” (PRESIDIO PHARMACEUTICALS, INC., priority 2010, published 2013).

The first experiment concerns HCV 1b_Huh-Luc/Neo-ET cell line persistently expressing a bicistronic genotype 1b replicon in Huh 7 cells. Nature of the experiment: HCV replicon assay (luciferase readout, 72 h). The settings on record: Hepatitis C virus, Huh-7, 72 h, read-out: Inhibition of HCV genotype 1b. The class given is cell-based, HCV genotype 1b. The method, boiled down:
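EC50 values come from a four-parameter fit of luciferase signal as % of untreated control, repeated across several determinations. The signal is from the HCV 1b_Huh-Luc/Neo-ET replicon line, dosed in triplicate one day post-plating and incubated 72 h before Bright-Glo readout.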
On the technique in general: A replicon is a self-replicating genome or part of one, used to study replication in cells.
For the molecule `CC(C)[C@@H](NC(=O)C1CC1)C(=O)N1CCC[C@H]1C(=O)Nc1ccc(C#Cc2cnc([C@@H]3CCCN3C(=O)[C@H](NC(=O)C3CC3)C(C)C)[nH]2)cc1` [Compound 116], the EC50 lay within 1 to 9.9 nM. The same measure, in the same setting: under `O=C(NC[C@@H]1CCCN1C(=O)[C@H](NC(=O)C1CC1)c1ccccc1)c1ccc(C#Cc2ccc(-c3cnc([C@@H]4CCCN4C(=O)[C@H](NC(=O)C4CC4)c4ccccc4)[nH]3)cc2)cc1` [Compound 193] stands below 1 nM. On to `COC(=O)N[C@H](C(=O)N1CCC[C@H]1c1ncc(-c2ccc(C#Cc3ccc(-c4cnc([C@@H]5CCCN5C(=O)[C@H](C(C)C)N5CCOC5=O)[nH]4)cc3)cc2)[nH]1)C(C)C` [Compound 996], for which the EC50 was below 1 nM. As to `COC(=O)N[C@@H](C(=O)N1CCC[C@H]1c1ncc(-c2ccc(C#Cc3ccc(-c4cnc([C@@H]5CCCN5C(=O)[C@H](NC(=O)N5CCC[C@H]5C)c5ccccc5)[nH]4)cc3)cc2)[nH]1)c1ccccc1` [Compound 262], the EC50 was below 1 nM. The same measure, in the same setting: the result for `CC(C)(C)OC(=O)N[C@@H](C(=O)N1CCC[C@H]1c1cc(-c2ccc(C#Cc3ccc(-c4cnc([C@@H]5CCCN5C(=O)[C@H](NC(=O)OC(C)(C)C)c5ccccc5)[nH]4)cc3)cc2)n[nH]1)c1ccccc1` [Compound 210] reads below 1 nM; that for `COC(=O)NC(C(=O)N[C@@H](C)c1ncc(-c2ccc(C#Cc3ccc(-c4cnc([C@@H]5CCCN5C(=O)[C@H](NC(=O)OC)c5ccccc5)[nH]4)cc3)cc2)[nH]1)c1ccccc1` (some centres unmarked) [Compound 279], below 1 nM. The same measure, in the same setting: the result for `COC(=O)N[C@H](C(=O)N1CCC[C@H]1c1nc2c([nH]1)-c1ccc(C#Cc3ccc(-c4cnc([C@@H]5CCCN5C(=O)[C@@H](NC(=O)OC)C5CCOCC5)[nH]4)cc3)cc1CC2)C(C)C` [Compound 1091] reads below 1 nM; that for `COC(=O)N[C@H](C(=O)N1CCC[C@H]1c1nc2ccc3cc(C#Cc4ccc(-c5cnc([C@@H]6CCCN6C(=O)[C@H](NC(=O)OC)c6ccccc6)[nH]5)cc4)ccc3c2[nH]1)C(C)C` [Compound 1093], below 1 nM; that for `CC(C)[C@H](NC(=O)N1CCCC1)C(=O)N1CCC[C@H]1c1ncc(-c2ccc(C#Cc3ccc(-c4cnc([C@@H]5CCCN5C(=O)[C@@H](NC(=O)N5CCCC5)C(C)C)[nH]4)cc3)cc2)[nH]1` [Compound 288], above 1000 nM. On the same count and under the same terms, under `COC(=O)N[C@H](C(=O)N1CCC[C@H]1c1ncc(-c2ccc(C#Cc3ccc(-c4cnc([C@@H]5CCCN5C(=O)[C@@H](c5ccccc5)N5CCOCC5)[nH]4)cc3)cc2)[nH]1)C(C)C` [Compound 987] stands below 1 nM; under `CS(=O)(=O)N[C@@H](C(=O)N1CCC[C@H]1c1ncc(-c2ccc(C#Cc3ccc(-c4cnc([C@@H]5CCCN5C(=O)[C@@H](c5ccccc5)N5CCCC5)[nH]4)cc3)cc2)[nH]1)c1ccccc1` [Compound 230], below 1 nM. In the case of `COC(=O)NCC(=O)N1CCC[C@H]1c1ncc(-c2ccc(C#Cc3ccc4nc([C@@H]5CCCN5C(=O)CNC(=O)OC)[nH]c4c3)cc2)[nH]1` [Compound 1049], the EC50 was 10 to 999 nM.

Regarding `COC(=O)N[C@H](C(=O)N1CCC[C@H]1c1ncc(-c2ccc(C#Cc3ccc(-c4cnc([C@@H]5CCCN5C(=O)[C@H](NC(=O)N5CC[C@@H](O)C5)c5ccccc5)[nH]4)cc3)cc2)[nH]1)C(C)C` [Compound 975], the EC50 is below 1 nM. On the same count and under the same terms, the result for `COC(=O)N[C@@H](C)C(=O)N1CCC[C@H]1c1ncc(-c2ccc(C#Cc3ccc(-c4cnc([C@@H]5CCCN5C(=O)[C@@H](c5ccccc5)N5CCOC5=O)[nH]4)cc3)cc2)[nH]1` [Compound 1008] reads below 1 nM; that for `COC(=O)N[C@H](C(=O)N1CCC[C@H]1c1ncc(-c2ccc(C#Cc3ccc(-c4cnc([C@@H]5CCCN5C(=O)[C@@H](NC(=O)OC)C(C)C)[nH]4)c(F)c3)cc2)[nH]1)C(C)C` [Compound 1011], below 1 nM.

As to `CC(C)[C@H](NC(=O)N1CCC(C)(O)CC1)C(=O)N1CCC[C@H]1c1ncc(-c2ccc(C#Cc3ccc(-c4cnc([C@@H]5CCCN5C(=O)[C@@H](NC(=O)N5CCC(C)(O)CC5)C(C)C)[nH]4)cc3)cc2)[nH]1` [Compound 966], the EC50 fell in the range of 10 to 999 nM. The same measure, in the same setting: the result for `COC(=O)N[C@@H](CC(N)=O)C(=O)N1CCC[C@H]1c1ncc(-c2ccc(C#Cc3ccc4nc([C@@H]5CCCN5C(=O)[C@H](CC(N)=O)NC(=O)OC)[nH]c4c3)cc2)[nH]1` [Compound 1046] reads 1 to 9.9 nM; that for `COC(=O)N[C@@H](C(=O)N1CCC[C@H]1c1ncc(-c2ccc(C#Cc3ccc(-c4cnc([C@@H]5CCCN5C(=O)[C@H](NC(=O)N5CCC(C)(O)CC5)c5ccccc5)[nH]4)cc3)cc2)[nH]1)c1ccccc1` [Compound 273], below 1 nM.

Turning to `CC(C)[C@H](NC(=O)[C@H](NC(=O)OC(C)(C)C)c1ccccc1)c1ncc(-c2ccc(C#Cc3ccc(-c4cnc([C@@H]5CCCN5C(=O)[C@H](NC(=O)OC(C)(C)C)c5ccccc5)[nH]4)cc3)cc2)[nH]1` [Compound 281], the EC50 was in the range of 1 to 9.9 nM.

For `COC(=O)N[C@H](C(=O)N1CSC[C@H]1c1ncc(-c2ccc(C#Cc3ccc4nc([C@@H]5CCCN5C(=O)[C@@H](NC(=O)OC)C(C)C)[nH]c4c3)cc2)[nH]1)C(C)C` [Compound 1026], the EC50 was below 1 nM. Same read-out and setting: under `COC(=O)N[C@H](C(=O)N1CCC[C@H]1c1ncc(C#Cc2ccc3cc(-c4cnc([C@@H]5CCCN5C(=O)[C@@H](NC(=O)OC)C5CCOCC5)[nH]4)ccc3c2)[nH]1)C1CCOCC1` [Compound 1080] stands below 1 nM; under `COC(=O)N[C@H](C(=O)N1CCC[C@H]1c1ncc(-c2ccc(C#Cc3ccc(-c4cnc([C@H](C)NC(=O)[C@@H](C(C)C)N(C)C)[nH]4)cc3)cc2)[nH]1)C(C)C` [Compound 982], 10 to 999 nM. On the same count and under the same terms, under `COC(=O)N[C@@H](C)C(=O)N1CCC[C@H]1c1ncc(-c2ccc(C#Cc3ccc4nc([C@@H]5CCCN5C(=O)[C@H](C)NC(=O)OC)[nH]c4c3)cc2)[nH]1` [Compound 1028] stands below 1 nM; under `CNC(=O)N[C@@H](C(=O)N1CCC[C@H]1c1ncc(C#Cc2ccc(C#Cc3cnc([C@@H]4CCCN4C(=O)[C@H](NC(=O)NC)c4ccccc4)[nH]3)cc2)[nH]1)c1ccccc1` [Compound 307], below 1 nM. On the same count and under the same terms, under `COC(=O)N[C@H](C(=O)N1CCC[C@H]1c1ncc(C#Cc2ccc(-c3ccc(-c4cnc([C@@H]5CCCN5C(=O)[C@@H](NC(=O)OC)C(C)C)[nH]4)cc3)cc2)[nH]1)C(C)C` [Compound 756] stands below 1 nM.

The experiment is the same for the next values; noted with them: Hepatitis C virus, Huh-7, read-out: Inhibition of HCV genotype 1b.
`COC(=O)N[C@H](C(=O)N1CCC[C@H]1c1ncc(-c2ccc(C#Cc3ccc(-c4cnc([C@@H]5CCCN5C(=O)[C@@H](NC(=O)OC)C(C)C)[nH]4)cc3C#N)cc2)[nH]1)C(C)C` [Compound 1202]: the EC50 is below 1 nM. On the same count and under the same terms, the result for `COC(=O)N[C@H](C(=O)N1CCC[C@H]1c1ncc(-c2ccc(C#Cc3ccc4nc([C@@H]5CCCN5C(=O)[C@@H](NC(=O)OC)C(C)C)[nH]c4c3)cc2F)[nH]1)C(C)C` [Compound 1223] reads below 1 nM; that for `COC(=O)N[C@H](C(=O)N1CCC[C@H]1c1nc2c([nH]1)-c1ccc(C#Cc3ccc4nc([C@@H]5CCCN5C(=O)[C@H](NC(=O)OC)c5ccccc5)[nH]c4c3)cc1CCC2)C(C)C` [Compound 1281], below 1 nM; that for `COC(=O)N[C@H](C(=O)N1CCC[C@H]1c1ncc(-c2ccc(C#Cc3ccc(-c4cnc([C@@H]5CCCN5C(=O)[C@@H](NC(=O)OC)C(C)C)[nH]4)cc3C(=O)OC)cc2)[nH]1)C(C)C` [Compound 1200], below 1 nM.
